Reference: US20110269628A1, “Pesticidal Mixtures” (priority 2009, published 2011)

Assays:
[1] = system: Imidazolinone tolerant soybeans; experiment: Stomatal conductance gs (infrared gas analyzer), soybean pot experiment; format: in vivo; conditions: 1 DAA; application at BBCH 14; pyraclostrobin 0.3 L/ha (250 g/L), imazapyr 0.075 L/ha (480 g/L)
[2] = system: Imidazolinone tolerant soybeans; experiment: Chlorophyll content (SPAD chlorophyll-meter), soybean pot experiment; format: in vivo; conditions: 1 DAA; application at BBCH 14; pyraclostrobin 0.6 L/ha (250 g/L), imazapyr 0.3 L/ha (480 g/L)

Row | SMILES | OE = observed efficacy (%), increase of stomatal conductance vs untreated control [1] | SC = Stomatal Conductance (gs) [1] | Chlorophyll Content (SPAD) [2] | OE = observed efficacy (%), increase of chlorophyll content vs untreated control [2]
1 | CC(C)C1(C)N=C(c2ncccc2C(=O)O)NC1=O (centres unmarked) [Imazapyr, imazapyr] | −3.1% | 0.380 mol m^−2s^−1 | 26.5 | −1.5%
2 | COC(=O)N(OC)c1ccccc1COc1ccn(-c2ccc(Cl)cc2)n1 [Pyraclostrobin, pyraclostrobin] | 7.4% | 0.421 mol m^−2s^−1 | 27.6 | 2.6%
